Measurements reported in PubChem BioAssay AID248 (DTP/NCI, 2004).
“And” between values parts separate entries of the source, which are not always exact repeats. Equal entries are not always repeated. Toxic doses and inconclusive results are not listed. Rule as the data show it: active = T/C of 150% or more; inactive = T/C below 125%.

System: L1210 leukemia ip in BDF1 mice, survival T/C
Test: NCI In Vivo Anticancer Drug Screen. Data for tumor model L1210 Leukemia (intraperitoneal) in B6D2F1 (BDF1) mice
Settings: endpoint: mean survival time, higher = longer survival
Outline: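 Each compound was tested against a transplantable tumor grown in mice. The endpoint was survival, with treated animals benchmarked against vehicle controls as a simple ratio.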

[1] = dose: 100.0 mg/kg/injection, schedule: Q04DX003 (ip), vehicle: Klucel (hydroxypropylcellulose) (HPC)
[2] = dose: 100.0 mg/kg/injection, schedule: Q01DX001 (ip), vehicle: saline
[3] = dose: 100.0 mg/kg/injection, schedule: Q01DX009 (ip), vehicle: saline
[4] = dose: 200.0 mg/kg/injection, schedule: Q01DX001 (ip), vehicle: saline
[5] = dose: 200.0 mg/kg/injection, schedule: Q01DX009 (ip), vehicle: saline
[6] = dose: 400.0 mg/kg/injection, schedule: Q01DX001 (ip), vehicle: saline
[7] = dose: 400.0 mg/kg/injection, schedule: Q01DX009 (ip), vehicle: saline
[8] = dose: 100.0 mg/kg/injection, schedule: Q04DX003 (ip), vehicle: saline
[9] = dose: 200.0 mg/kg/injection, schedule: Q04DX003 (ip), vehicle: saline

Measured: T/C

NC(=O)N/N=C1/CCCC(C(=O)O)C1 (stereo not drawn)
inactive: dose: 100.0 mg/kg/injection, schedule: Q01DX001 (ip), vehicle: Klucel (hydroxypropylcellulose) (HPC) 105 % of control | [1] 102 % of control | dose: 200.0 mg/kg/injection, schedule: Q01DX001 (ip), vehicle: Klucel (hydroxypropylcellulose) (HPC) 109 % of control | dose: 200.0 mg/kg/injection, schedule: Q04DX003 (ip), vehicle: Klucel (hydroxypropylcellulose) (HPC) 98 % of control | dose: 400.0 mg/kg/injection, schedule: Q01DX001 (ip), vehicle: Klucel (hydroxypropylcellulose) (HPC) 103 % of control | dose: 400.0 mg/kg/injection, schedule: Q04DX003 (ip), vehicle: Klucel (hydroxypropylcellulose) (HPC) 100 % of control

C=CCOC1C=CC=CC=C1
inactive: dose: 25.0 mg/kg/injection, schedule: Q01DX009 (ip), vehicle: Klucel (hydroxypropylcellulose) (HPC) 100 % of control | dose: 50.0 mg/kg/injection, schedule: Q01DX009 (ip), vehicle: Klucel (hydroxypropylcellulose) (HPC) 100 % of control | [1] 94 % of control

N#Cc1ccc(Cl)c2c1C(=O)c1ccccc1C2=O
inactive: [2] 98 % of control | [3] 100 % of control | [4] 98 % of control | [5] 94 % of control | [6] 95 % of control | [7] 92 % of control

COC(=O)c1cn2c(c1C(=O)OC)CCC2
active: dose: 50.0 mg/kg/injection, schedule: Q01DX009 (ip), vehicle: other 222 % of control | dose: 100.0 mg/kg/injection, schedule: Q01DX009 (ip), vehicle: other 459 % of control
inactive: dose: 12.5 mg/kg/injection, schedule: Q01DX009 (ip), vehicle: other 93 % of control | dose: 25.0 mg/kg/injection, schedule: Q01DX009 (ip), vehicle: other 96 % of control | dose: 59.0 mg/kg/injection, schedule: Q01DX009 (ip), vehicle: other 94 % of control and 113 % of control | dose: 89.0 mg/kg/injection, schedule: Q01DX009 (ip), vehicle: other 99 % of control and 102 % of control | dose: 133.0 mg/kg/injection, schedule: Q01DX009 (ip), vehicle: other 93 % of control and 106 % of control | dose: 300.0 mg/kg/injection, schedule: Q01DX009 (ip), vehicle: other 116 % of control

O=C(CC(=O)Nc1ccccc1)Cc1ccccc1
inactive: [2] 102 % of control | [3] 93 % of control | [4] 88 % of control | [5] 90 % of control | [6] 93 % of control | [7] 93 % of control

CN(C)CC(=O)N/N=C\c1ccc([N+](=O)[O-])s1
inactive: [8] 91 % of control | [9] 93 % of control

COc1cc([N+](=O)[O-])c(C(OC(C)=O)OC(C)=O)cc1Br
inactive: dose: 100.0 mg/kg/injection, schedule: Q01DX001 (ip), vehicle: acetone 98 % of control | [3] 94 % of control | [8] 105 % of control | dose: 200.0 mg/kg/injection, schedule: Q01DX001 (ip), vehicle: acetone 88 % of control | [5] 86 % of control | [9] 109 % of control | dose: 400.0 mg/kg/injection, schedule: Q01DX001 (ip), vehicle: acetone 97 % of control | [7] 88 % of control | dose: 400.0 mg/kg/injection, schedule: Q04DX003 (ip), vehicle: saline 105 % of control

Cc1ccc(C(=O)N/N=C/c2ccc3ccccc3c2)cc1
inactive: dose: 100.0 mg/kg/injection, schedule: Q04DX002 (ip), vehicle: Klucel (hydroxypropylcellulose) (HPC) 95 % of control | dose: 200.0 mg/kg/injection, schedule: Q04DX002 (ip), vehicle: Klucel (hydroxypropylcellulose) (HPC) 103 % of control | dose: 400.0 mg/kg/injection, schedule: Q04DX002 (ip), vehicle: Klucel (hydroxypropylcellulose) (HPC) 95 % of control

CC1NC(=O)OC1(C)C(C)(C)C (stereo not drawn)
inactive: dose: 5.0 mg/kg/injection, schedule: Q04DX003 (ip), vehicle: saline with Tween-80 97 % of control | dose: 10.0 mg/kg/injection, schedule: Q04DX003 (ip), vehicle: saline with Tween-80 100 % of control | dose: 20.0 mg/kg/injection, schedule: Q04DX003 (ip), vehicle: saline with Tween-80 96 % of control

CCC(CC)(COC(=O)c1ccc(N)cc1)C1CCCCC1
inactive: dose: 150.0 mg/kg/injection, schedule: Q01DX001 (ip), vehicle: carboxymethylcellulose (CMC) 94 % of control

CC(C)(C)OC(=O)N1C2CCC(C2)N1C(=O)OC(C)(C)C
inactive: dose: 100.0 mg/kg/injection, schedule: Q01DX001 (ip), vehicle: carboxymethylcellulose (CMC) 100 % of control | dose: 200.0 mg/kg/injection, schedule: Q01DX001 (ip), vehicle: carboxymethylcellulose (CMC) 96 % of control | dose: 400.0 mg/kg/injection, schedule: Q01DX001 (ip), vehicle: carboxymethylcellulose (CMC) 96 % of control

C=CC(=O)Nc1cccc(OC(=O)NC(C)C)c1
inactive: dose: 100.0 mg/kg/injection, schedule: Q04DX003 (ip), vehicle: saline with Tween-80 89 % of control | dose: 200.0 mg/kg/injection, schedule: Q04DX003 (ip), vehicle: saline with Tween-80 97 % of control | dose: 400.0 mg/kg/injection, schedule: Q04DX003 (ip), vehicle: saline with Tween-80 103 % of control
